Source: a melting point compilation (Tetko et al.)

| SMILES | melting point [°C] |
| --- | --- |
| COc1ccc(COc2ccc(C#N)cn2)cc1 | 101 to 103 |
| Oc1ccc(-c2nc(-c3ccccc3)cs2)cc1 | 148 to 150 |
| O=S(=O)(c1ccc(Cl)nc1)N1CCOCC1 | 143 to 145 |
| Nc1ccn(Cc2ccsc2)n1 | 43 to 45 |
| Cc1nc(CC(=O)NN)cs1 | 114 to 116 |
| Nc1cc(-c2cccc(Cl)c2Cl)[nH]n1 | 110 to 112 |
| ON=Cc1ccccc1OCc1cn2ccccc2n1 | 197 to 199 |
| O=C(O)C1CCN(c2ccccc2[N+](=O)[O-])CC1 | 158 to 160 |
| CC(C)C(Br)C(=O)Nc1ccc2c(c1)CCC2 (stereo unspecified) | 124 to 126 |
| CC1CCCCC1(NC(=O)OC(C)(C)C)C(=O)O (stereo unspecified) | 174 to 176 |
| NC(=NO)c1cccnc1Oc1ccccc1 | 152 to 154 |
| CCOC=C1C(=O)N(c2ccc(OCC)cc2)C(=O)c2ccccc21 | 175 to 177 |
| Cc1ccc(-n2cc(SC(=O)N(C)C)cn2)cc1 | 95 to 97 |
| O=Cc1c(Cl)nc2ccccn2c1=O | 213 to 215 |
| O=C(Cn1cccn1)NC1CCCCC1 | 116 to 118 |
| CNCc1cn(-c2ccccc2)nc1-c1ccc(Cl)cc1 | 65 to 67 |
| NCC(=O)N1CCN(c2ccccc2)CC1 | 69 to 71 |
| N#Cc1cc([N+](=O)[O-])cnc1Cl | 119 to 121 |
| COc1ccc(C2=CCNC2)cc1 | 94 to 96 |
| O=c1[nH]c(CCl)nc2scc(-c3ccccc3Cl)c12 | 167 to 169 |
| O=C(O)C1(c2cccs2)CCCCC1 | 146 to 148 |

| SMILES | melting point [°C] |
| --- | --- |
| Cc1ccc(OCc2nc(N)no2)cc1 | 144 to 146 |
| CC(C)(C)c1cnc(S)o1 | 131 to 133 |
| O=C(c1cc2ccccc2cc1O)N1CCOCC1 | 216 to 218 |
| N#Cc1c(N)sc2c1CCCCCC2 | 104 to 106 |
| O=Cc1ccc(N2CCC(O)CC2)o1 | 103 to 105 |
| CC(C)CCc1cc(N)on1 | 61 to 63 |
| CC(C)(C)c1ccc(C=C[N+](=O)[O-])cc1 | 44 to 46 |
| O=Cc1ccc(N2CCCCC2)s1 | 73 to 75 |
| O=C(Nc1ccccc1C(F)(F)F)OCC(F)(F)F | 68 to 70 |
| CC(C)(O)c1cn(-c2ccccc2)nn1 | 89 to 91 |
| COc1ccc(C2C(CO)CCC(=O)N2C)cc1 (stereo unspecified) | 119 to 121 |
| O=C(O)c1cn(-c2ccccc2)nc1-c1ccccc1 | 202 to 204 |
| ON=Cc1cccc(OCc2ccncc2)c1 | 177 to 179 |
| CC(=O)C(C#N)c1c(Cl)cccc1Cl (stereo unspecified) | 49 to 51 |
| NC(=S)Nc1ccc2c(c1)OCCO2 | 211 to 213 |
| CN(C)c1ncnc2nc[nH]c12 | 256 to 258 |
| Cc1n[nH]c(N)c1I | 102 to 104 |
| Nc1cc2c(cc1Br)NC(=O)CO2 | 209 to 211 |
| NC(CN1CCCC1)=NO | 142 to 144 |
| CC1CCN(C(=O)c2ccc(Cl)nc2)CC1 | 69 to 71 |
| OC(CC1CCCN1)c1cccs1 (stereo unspecified) | 63 to 65 |

| SMILES | melting point [°C] |
| --- | --- |
| NC(=O)C1CCCN1C(=O)NC(=O)CCl (stereo unspecified) | 126 to 128 |
| Nc1ncccc1OCc1cccnc1 | 104 to 106 |
| CCCOc1ccc(OCCBr)cc1 | 45 to 47 |
| O=Cc1cnn(Cc2ccccc2)c1 | 43 to 45 |
| CCOc1cc(Br)c(CC#N)cc1OCC | 68 to 70 |
| N#Cc1nc(Cl)ccc1Cl | 98 to 100 |
| Cc1ccc(N)cc1OCC1CCOCC1 | 114 to 116 |
| COc1cc2c(c(OC)c1OC)CCNC(=O)C2 | 176 to 178 |
| O=C1NC(=O)N(CCC2=CCCCC2)C1=O | 127 to 129 |
| CCOC(=O)c1cc2c(nc1N)CCN(C)C2 | 146 to 148 |
| CC(=O)OCC(=O)[C@@]1(O)CC[C@H]2[C@@H]3CCC4=CC(=O)CC[C@]4(C)[C@H]3[C@@H](O)C[C@@]21C | 219 to 221 |
| O=C1NCCN1CCN1CCNCC1 | 139 to 141 |
| COc1c(C#N)cnc2ccccc12 | 106 to 108 |
| CCCC(NC(=O)NCc1ccc(Br)cc1)C(=O)O (stereo unspecified) | 160 to 162 |
| O=S(=O)(Cl)c1ccc(OCC(F)F)cc1 | 42 to 44 |
| Nc1ccc(CC(F)(F)F)cc1 | 46 to 48 |
| CC(C)c1nc(I)c2ccccn12 | 84 to 86 |
| COCCCC(=O)c1ccc(Br)cc1 | 53 to 55 |
| O=C(O)c1cccn2ccnc12 | 266 to 268 |
| O=S(=O)(Cl)c1ccc2c(c1)S(=O)(=O)NC=N2 | 247 to 249 |

Second part, the molecule after the results:

| melting point [°C] | SMILES |
| --- | --- |
| 203 to 205 | Cc1cc(C(=O)O)ccc1N1C(=O)C=CC1=O |
| 117 to 119 | Cc1ccc(S(N)(=O)=O)cc1C |
| 109 to 111 | Cc1csc(C(O)(CC(=O)O)C(F)(F)F)n1 (stereo unspecified) |
| 172 to 174 | Cc1c(C(=O)O)cc(S(N)(=O)=O)cc1[N+](=O)[O-] |
| 171 to 173 | CC(C)Cn1nc(C(=O)O)c2ccccc2c1=O |
| 170 to 172 | Cc1n[nH]c(C)c1CC(C)C(=O)O (stereo unspecified) |
| 91 to 93 | COc1ccc(OC(C)C(=O)O)cc1 (stereo unspecified) |
| 119 to 121 | Nc1cc(F)ccc1N1CC(C(F)(F)F)OC1=O (stereo unspecified) |
| 134 to 136 | COc1ccc(-c2[nH]c3ccccc3c2CCC(=O)O)cc1 |
| 74 to 76 | CC(=O)c1nnn(-c2cccc(Br)c2)c1C |
| 260 to 262 | O=c1[nH]cnc2cc(F)ccc12 |
| 152 to 154 | CCOc1ccc(S(N)(=O)=O)cc1OCC |
| 238 to 240 | CC(C)N1C(=O)c2ccc(C(=O)O)cc2S1(=O)=O |
| 55 to 57 | Cc1cc(C)cc(Oc2ccc(N)cc2)c1 |
| 52 to 54 | Cc1ccc(N=C=O)c(C#N)c1 |
| 238 to 240 | CCOc1cc(C(=O)O)ccc1OCc1ccncc1 |
| 53 to 55 | COC(=O)c1c(C)cccc1S(=O)(=O)Cl |
| 142 to 144 | O=C(CCCl)Nc1ccc2c(c1)OCO2 |
| 144 to 146 | COC(=O)COc1cc(C(=O)O)ccc1OC |
| 97 to 99 | Cc1cc(S(N)(=O)=O)c(F)cc1F |

| melting point [°C] | SMILES |
| --- | --- |
| 118 to 120 | Cc1cc(CC(=O)O)c(C)n1-c1ccc(Cl)cc1 |
| 129 to 131 | O=C(O)c1noc(-c2ccc(F)cc2)n1 |
| 101 to 103 | CC(=CC(=O)O)c1ccccc1F |
| 135 to 137 | COc1ccc(S(N)(=O)=O)cc1OC |
| 119 to 121 | CCOC(=O)c1sc(N)c(C(=O)c2ccccc2)c1C |
| 82 to 84 | O=C(c1ccccc1)c1c(Cl)cccc1Cl |
| 253 to 255 | Cc1nn2cnnc2c(C)c1CCC(=O)O |
| 163 to 165 | CC(NC(=O)c1cccs1)C(=O)O (stereo unspecified) |
| 115 to 117 | OCc1cc2ccc(Br)cc2[nH]1 |
| 180 to 182 | Cc1[nH]c2ccc(F)cc2c1CC(=O)O |
| 91 to 93 | Cc1cccc(COc2cccc(CC(=O)O)c2)c1 |
| 176 to 178 | Cc1ccc(S(N)(=O)=O)cc1N |
| 147 to 149 | CCOC(=O)/C(C#N)=C\Nc1cc(Cl)ccc1F |
| 73 to 75 | Cc1ccc(NC(=O)CCl)cc1Cl |
| 60 to 62 | Cc1cc(Oc2ccccc2)ccc1N |
| 100 to 104 | Cc1csc2nc(CCl)cc(=O)n12 |
| 129 to 131 | CC(C)c1ccc(N2CCC(C(=O)O)C2=O)cc1 (stereo unspecified) |
| 137 to 139 | O=C(O)CCc1ccc(S(=O)(=O)N2CCCC2)cc1 |
| 137 to 139 | O=C(CCl)NCc1cccc(C(=O)NC2CC2)c1 |
